Several values for one entry are separate records, joined by “and”; a condition that tells them apart may be missing. Equal entries are not always repeated.
Assays:
[1] = Particle size of the lipid nanoparticle (dynamic light scattering, Malvern Zetasizer); type: physicochemical; conditions: Table 4, FVII siRNA LNP, Z-average
From the text: (§1) The lipid nanoparticles have a size of about 1 to about 2,500 nm, about 1 to about 1,500 nm, about 1 to about 1,000 nm, in a sub-embodiment about 50 to about 600 nm, in a sub-embodiment about 50 to about 400 nm, in a sub-embodiment about 50 to about 250 nm, and in a sub-embodiment about 50 to about 150 nm. Unless indicated otherwise, all sizes referred to herein are the average sizes (diameters) of the fully formed nanoparticle, as measured by dynamic light scattering on a Malvern Zetasizer. The nanoparticle sample is diluted in phosphate buffered saline (PBS) so that the count rate is approximately 200-400 kcts. The data is presented as a weighted average of the intensity measure. The lipid nanoparticles (LNPs) were formed by mixing equal volumes of lipids dissolved in alcohol with siRNA dissolved in a citrate buffer by an impinging jet process. […] The siRNA to total lipid ratio is approximately 0.05 (wt/wt). Where a LNP formulation contains four lipid components, the molar ratios correspond to the type of lipid as it appears in the first four columns of the table, in the order that they appear. The ratio of the lipids ranges from 20 to 70 mole percent for the cationic lipid with a target of 40-60, the mole percent of helper lipid ranges from 20 to 70 with a target of 30 to 50, the mole percent of neutral lipid ranges from 0-30, the mole percent of PEG lipid has a range from 1 to 6 with a target of 2 to 5. The concentration of siRNA solution ranges from 0.7 to 1.0 mg/mL with a target of 0.8 to 0.9 mg/mL in a sodium citrate: sodium chloride buffer pH 4-6, with a target of 4.5-5.5. The LNPs are formed by mixing equal volumes of lipid solution in ethanol with siRNA dissolved in a citrate buffer by an impinging jet process through a mixing device with ID ranging from 0.25 to 2.0 mm at a flow rate from 10 to 640 mL/min. The mixed LNP solution is held at room temperature for 0-24 hrs prior to a dilution step. […] The final product is sterile filtered and stored at 4° C. Unless indicated otherwise, all particle size measurements referred to in Tables 4 and 5 are the Z-average particle size of the fully formed nanoparticle, as measured by dynamic light scattering on a Malvern Zetasizer. The nanoparticle sample was diluted in phosphate buffered saline (PBS) so that the count rate is approximately 200-400 kcts.

[2] = Polydispersity index (PDI) of the lipid nanoparticle (dynamic light scattering); type: physicochemical
From the text: as §1, with “The” for “The lipid nanoparticles have a size of about 1 to about 2,500 nm, about 1 to about 1,500 nm, about 1 to about 1,000 nm, in a sub-embodiment about 50 to about 600 nm, in a sub-embodiment about 50 to about 400 nm, in a sub-embodiment about 50 to about 250 nm, and in a sub-embodiment about 50 to about 150 nm. Unless indicated otherwise, all sizes referred to herein are the average sizes (diameters) of the fully formed nanoparticle, as measured by dynamic light scattering on a Malvern Zetasizer. The nanoparticle sample is diluted in phosphate buffered saline (PBS) so that the count rate is approximately 200-400 kcts. The data is presented as a weighted average of the intensity measure. The”, “all PDIs” for “all particle size measurements”, “to herein” for “to in Tables 4 and 5”, “the PDI” for “the Z-average particle size”, “rate was” for “rate is”, “kcts. The data is presented in Tables 4 and 5 as a weighted average of the intensity measure.” for “kcts.”

[3] = pKa measurement of the cationic lipid (TNS fluorescence vs pH); type: physicochemical; conditions: probe TNS (fluorescent probe), pKa of the cationic lipid of formula (I)
Description: Unless indicated otherwise, all pKa's referred to herein were measured at standard temperature and pressure. Also, unless otherwise indicated, all references to pKa are references to pKa measured using the following technique. 2 mM solution of lipid in ethanol was prepared by weighing the lipid and then dissolving it in ethanol. 0.3 mM solution of fluorescent probe TNS in ethanol:methanol 9:1 was prepared by first making 3 mM solution of TNS in methanol and then diluting to 0.3 mM with ethanol. An aqueous buffer containing 200 mM sodium phosphate dibasic and 100 mM citric acid was prepared. […] Using the Hamilton Microlab Star high throughput liquid handler and Hamilton run control software Software, 7.5 uL of probe/lipid mix were added to 242.5 uL of buffer in a 1 mL 96 well plate (model NUNC 260252, […] Nunc International). This was done with all twelve buffers. After mixing in 1 mL 96 well plate, 100 uL of each probe/lipid/buffer mixture was transferred to a 250 uL black with clear bottom 96 well plate (model COSTAR 3904, Corning). The fluorescence measurements are carried out on the SpectraMax M5 spectrophotometer using software SoftMax pro 5.2 and following parameters: After the measurement, the background fluorescence value of an empty well on the 96 well plate was subtracted from each probe/lipid/buffer mixture. The fluorescence intensity values were then normalized to the value at lowest pH. The normalized fluorescence intensity vs. pH chart was then plotted in the Microsoft Excel software. The twelve points were connected with a smooth line. The point on the line at which the normalized fluorescence intensity was equal to 0.5 was found. […] The pKa determined using this method is precise to about 0.1 pKa units.

[4] = test system: respiratory syncytial virus F protein; assay: Immunization studies: anti-RSV-F titers after liposome-delivered vA317 self-replicating RNA; type: in vivo; conditions: BALB/c mice, Course A = days 0 & 21, liposomes with 0.1 μg vA317 replicon (naked control 1 μg)
Description: BALB/c were immunized with liposomes comprising DSPC, cholesterol, and various lipids of the invention (or, for comparison, the cationic lipid 1,2-dilinoleyloxy-N,N-dimethyl-3-aminopropane or ‘DLinDMA’). The liposomes encapsulated 0.1 μg of “vA317” self-replicating RNA replicon which encodes respiratory syncytial virus F protein (see WO2012/031043). […] Doses were given either on days 0 & 21 or days 0 & 42. Immune responses were assessed 2 weeks after each dose (2wp1, 2wp2), and in some cases also at 4 weeks after the second dose (4wp2). Four series of experiments were performed, each with its own naked control.

[5] = Chol/DSPC/stealth lipid S010, molar ratio 45/44/9/2
[6] = Table 4, FVII siRNA LNP, Chol/DSPC/stealth lipid S010, 45/44/9/2
[7] = Chol/DSPC/stealth lipid PEG-DMG, molar ratio 45/44/9/2
[8] = Table 4, FVII siRNA LNP, Chol/DSPC/stealth lipid PEG-DMG, 45/44/9/2

Size (nm) [1, 5] [nm]	PDI [2, 6]	pKa ([3]; Table 4)	Size (nm) [1, 7] [nm]	PDI [2, 8]	SMILES	also measured
103.2	0.052	–	–	–	CCCCC/C=C\CC=CCCCCCCCC(=O)OCCCCOc1cc(CN(C)C)cc(OCCCCOC(=O)CCCCCCCC=CC/C=C\CCCCC)c1C [Example 51]	–
106.9	0.043	6.37	101.9	0.10	CCCCC/C=C\C/C=C\CCCCCCCC(=O)OCCCCOc1cc(CN(CC)CC)cc(OCCCCOC(=O)CCCCCCC/C=C\C/C=C\CCCCC)c1C [Example 55]	–
94.28	0.062	6.17	110.9	0.02	CCCCC/C=C\C/C=C\CCCCCCCC(=O)OCCOc1cc(CN(C)C)cc(OCCOC(=O)CCCCCCC/C=C\C/C=C\CCCCC)c1 [Example 40]	–
197.3	0.14	5.71	–	–	CCCCCCCCCC(=O)OCCCC(=O)OCCCOc1cc(CN(C)C)cc(OCCCOC(=O)CCCOC(=O)CCCCCCCCC)c1 [Example 96]	–
113.8	0.036	5.95	126.0	0.06	CCCCCCCCCCCCC(=O)OCc1cc(COC(=O)CCCCCCCCCCCC)cc(CN(C)C)c1 [Example 34]	–
126	0.056	5.92	–	–	CCC/C=C\CCCCCCC(=O)OCCCCCCOc1cc(CN(C)C)cc(OCCCCCCOC(=O)CCCCCC/C=C\CCC)c1 [Example 50]	–
113.3	0.079	6.03	129.1	0.1	CCCCCCCCCCCC(=O)OCCCCCCCCOc1cc(CN(C)C)cc(OCCCCCCCCOC(=O)CCCCCCCCCCC)c1 [Example 53]	–
152.4	0.046	5.99	–	–	CCCCCCCCCC(=O)OCCCCCC(=O)OCc1cc(COC(=O)CCCCCOC(=O)CCCCCCCCC)cc(CN(C)C)c1 [Example 88]	–
116.4	0.073	6.16	–	–	CCCCCCCC(=O)OC[C@@H](CCOc1cc(CN(C)C)cc(OCC[C@H](COC(=O)CCCCCCC)OC(=O)CCCCCCC)c1)OC(=O)CCCCCCC [Example 94]	–
152.3	0.105	5.93	–	–	CCCCCCCC(=O)OCCCCCCOc1cc(CN(C)C)cc(OCCCCCCOC(=O)CCCCCCC)c1 [Example 48]	–
–	–	6.08	96.1	0.1	CCCCC/C=C\C/C=C\CCCCCCCC(=O)OCCCCOc1cc(CN2CCCC2)cc(OCCCCOC(=O)CCCCCCC/C=C\C/C=C\CCCCC)c1 [Example 112]	–
105.9	0.121	6.17	106.4	0.07	CCCCCCCC(=O)OCCCCCCCCCCOc1cc(CN(CC)CC)cc(OCCCCCCCCCCOC(=O)CCCCCCC)c1OCCCCCCCCCCOC(=O)CCCCCCC [Example 100]	–
102.4	0.135	6.18	–	–	CCCCC/C=C\C/C=C\CCCCCCCC(=O)OCCCCCCCCOc1cc(CN(C)C)cc(OCCCCCCCCOC(=O)CCCCCCC/C=C\C/C=C\CCCCC)c1 [Example 46]	–
172.9	0.077	5.66	–	–	CCCCCC(=O)OCCCCCCCCCCOc1cc(CN(C)C)cc(OCCCCCCCCCCOC(=O)CCCCC)c1 [Example 44]	–
95.55	0.098	6.21	–	–	CCCCCCCC/C=C\CCCCCCCC(=O)OCCCCOc1cc(CN(C)C)cc(OCCCCOC(=O)CCCCCCC/C=C\CCCCCCCC)c1 [Example 60]	–
117.3	0.065	5.92	–	–	CCCCCCCC(=O)OC[C@@H](CCOc1cc(CN(C)C)cc(OCC[C@@H](COC(=O)CCCCCCC)OC(=O)CCCCCCC)c1)OC(=O)CCCCCCC [Example 92]	–
–	0.049	6.01	–	–	CCCCC/C=C\C/C=C\CCCCCCCCOc1cc(COC(=O)CCN(C)C)cc(OCCCCCCCC/C=C\C/C=C\CCCCC)n1 [Example 31]	–
–	0.071	6.11	–	–	CCCCCCCC(=O)OCC(COC(=O)CCCCCCC)OC(=O)CCC(=O)OCc1cc(COC(=O)CCC(=O)OC(COC(=O)CCCCCCC)COC(=O)CCCCCCC)cc(CN(C)C)c1 [Example 107]	–

SMILES	Size (nm) [1, 5] [nm]	PDI [2, 6]	pKa ([3]; Table 4)	Size (nm) [1, 7] [nm]	PDI [2, 8]	also measured
CCCCC/C=C\C/C=C\CCCCCCCCOc1cc(CN(C)C)cc(OCCCCCCCC/C=C\C/C=C\CCCCC)c1 [Example 2]	–	0.067	5.57	–	0.04	pKa ([3]; Table 5): 5.57; PDI ([2]; Table 5, PLK1-424 siRNA LNP, stealth lipid S011, 45/44/9/2): 0.1; anti-RSV-F titer 2wp1 pool 1 ([4]; 2 weeks after first dose): 217; anti-RSV-F titer 2wp1 pool 2 ([4]; 2 weeks after first dose): 259; anti-RSV-F titer 2wp2 pool 1 ([4]; 2 weeks after second dose): 12785; anti-RSV-F titer 2wp2 pool 2 ([4]; 2 weeks after second dose): 8232
CCCCC/C=C\C/C=C\CCCCCCCCOc1cc(COC(=O)CCN(C)C)cc(OCCCCCCCC/C=C\C/C=C\CCCCC)c1 [Example 14]	–	0.059	6.11	–	–	anti-RSV-F titer 4wp2 pool 1 ([4]; 4 weeks after second dose): 13687 and 21375; anti-RSV-F titer 4wp2 pool 2 ([4]; 4 weeks after second dose): 18851 and 21347

From patent US9504747B2, “Lipids and lipid compositions for the delivery of active agents” (Novartis AG, priority 2013, dated 2016)
